{"source": "paper PMC8632988", "about": "“Inhibition of SYK and cSrc kinases can protect bone and cartilage in preclinical models of osteoarthritis and rheumatoid arthritis” (Scientific Reports, 2021)", "assay_in_all_cases": "Kinase selectivity profile assay", "assay_type_in_all_cases": "biochemical", "key": {"[1]": {"biological_target": "T1, ARK5/NUAK1 (Homo sapiens, UniProt O60285)", "T1 construct": "purchased Reaction Biology Corporation (assay service)", "T1 sequence (O60285 whole entry)": "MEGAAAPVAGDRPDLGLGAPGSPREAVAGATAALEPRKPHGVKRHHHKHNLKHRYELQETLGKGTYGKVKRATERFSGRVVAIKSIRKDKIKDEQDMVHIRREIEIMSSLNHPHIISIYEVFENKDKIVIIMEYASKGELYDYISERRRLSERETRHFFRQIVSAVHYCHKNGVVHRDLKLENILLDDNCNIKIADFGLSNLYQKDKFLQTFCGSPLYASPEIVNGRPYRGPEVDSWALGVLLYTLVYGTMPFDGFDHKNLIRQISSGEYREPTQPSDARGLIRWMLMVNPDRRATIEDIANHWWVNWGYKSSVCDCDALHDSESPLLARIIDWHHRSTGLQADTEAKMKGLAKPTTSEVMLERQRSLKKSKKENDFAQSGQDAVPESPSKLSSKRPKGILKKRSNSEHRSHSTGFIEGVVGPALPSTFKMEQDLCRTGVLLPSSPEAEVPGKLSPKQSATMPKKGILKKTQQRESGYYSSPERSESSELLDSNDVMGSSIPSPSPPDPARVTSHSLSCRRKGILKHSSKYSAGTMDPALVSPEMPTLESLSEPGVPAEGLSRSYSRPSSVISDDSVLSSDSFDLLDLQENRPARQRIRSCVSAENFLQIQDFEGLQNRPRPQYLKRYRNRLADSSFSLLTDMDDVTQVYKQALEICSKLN", "from_the_text": "(§1) Kinase activity data was expressed as the percent remaining kinase activity in test samples compared to vehicle (dimethyl sulfoxide) reactions based on the radioactivity of reaction products (see Table S2). Experiment was replicated twice."}, "[2]": {"biological_target": "T2, CAMK1d (Homo sapiens, UniProt Q8IU85)", "T2 construct": "purchased Reaction Biology Corporation", "details": "500 nM; relative to DMSO; read-out: Residual enzymatic activity", "from_the_text": "as §1"}, "[3]": {"biological_target": "T3, CAMK1g (Homo sapiens, UniProt Q96NX5)", "T3 construct": "purchased Reaction Biology Corporation", "details": "500 nM; relative to DMSO; read-out: Residual enzymatic activity", "from_the_text": "as §1"}, "[4]": {"biological_target": "T4, EGFR (Homo sapiens, UniProt P00533)", "T4 construct": "purchased Reaction Biology Corporation", "details": "500 nM, relative to DMSO", "from_the_text": "as §1"}, "[5]": {"biological_target": "T5, FES/FPS (Homo sapiens, UniProt P07332)", "T5 construct": "purchased Reaction Biology Corporation", "details": "500 nM; relative to DMSO; read-out: Residual enzymatic activity", "from_the_text": "as §1"}, "[6]": {"biological_target": "T6, FGFR2 (Homo sapiens, UniProt P21802)", "T6 construct": "purchased Reaction Biology Corporation", "details": "500 nM, relative to DMSO", "from_the_text": "as §1"}, "[7]": {"biological_target": "T7, FYN (Homo sapiens, UniProt P06241)", "T7 construct": "purchased Reaction Biology Corporation (assay service)", "T7 sequence (P06241 whole entry)": "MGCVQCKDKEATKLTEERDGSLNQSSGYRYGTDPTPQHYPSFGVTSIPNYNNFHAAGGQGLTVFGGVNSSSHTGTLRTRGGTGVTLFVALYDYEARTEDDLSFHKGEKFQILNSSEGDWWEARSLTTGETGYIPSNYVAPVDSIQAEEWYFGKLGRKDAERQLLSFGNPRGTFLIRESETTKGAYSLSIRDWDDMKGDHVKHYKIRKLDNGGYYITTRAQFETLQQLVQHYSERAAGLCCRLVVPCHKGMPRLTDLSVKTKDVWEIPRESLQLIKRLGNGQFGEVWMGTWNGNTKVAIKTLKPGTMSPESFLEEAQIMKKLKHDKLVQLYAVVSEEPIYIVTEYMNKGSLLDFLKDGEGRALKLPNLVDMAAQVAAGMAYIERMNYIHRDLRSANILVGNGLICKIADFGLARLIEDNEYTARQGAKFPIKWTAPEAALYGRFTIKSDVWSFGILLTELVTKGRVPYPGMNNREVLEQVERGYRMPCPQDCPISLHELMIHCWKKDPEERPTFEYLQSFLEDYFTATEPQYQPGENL", "from_the_text": "as §1"}, "[8]": {"biological_target": "T8, JNK1 (Homo sapiens, UniProt P45983)", "T8 construct": "purchased Reaction Biology Corporation", "details": "500 nM; relative to DMSO; read-out: Residual enzymatic activity", "from_the_text": "as §1"}, "[9]": {"biological_target": "T9, KDR/VEGFR2 (Homo sapiens, UniProt P35968)", "T9 construct": "purchased Reaction Biology Corporation", "T9 sequence (P35968 20-1356)": "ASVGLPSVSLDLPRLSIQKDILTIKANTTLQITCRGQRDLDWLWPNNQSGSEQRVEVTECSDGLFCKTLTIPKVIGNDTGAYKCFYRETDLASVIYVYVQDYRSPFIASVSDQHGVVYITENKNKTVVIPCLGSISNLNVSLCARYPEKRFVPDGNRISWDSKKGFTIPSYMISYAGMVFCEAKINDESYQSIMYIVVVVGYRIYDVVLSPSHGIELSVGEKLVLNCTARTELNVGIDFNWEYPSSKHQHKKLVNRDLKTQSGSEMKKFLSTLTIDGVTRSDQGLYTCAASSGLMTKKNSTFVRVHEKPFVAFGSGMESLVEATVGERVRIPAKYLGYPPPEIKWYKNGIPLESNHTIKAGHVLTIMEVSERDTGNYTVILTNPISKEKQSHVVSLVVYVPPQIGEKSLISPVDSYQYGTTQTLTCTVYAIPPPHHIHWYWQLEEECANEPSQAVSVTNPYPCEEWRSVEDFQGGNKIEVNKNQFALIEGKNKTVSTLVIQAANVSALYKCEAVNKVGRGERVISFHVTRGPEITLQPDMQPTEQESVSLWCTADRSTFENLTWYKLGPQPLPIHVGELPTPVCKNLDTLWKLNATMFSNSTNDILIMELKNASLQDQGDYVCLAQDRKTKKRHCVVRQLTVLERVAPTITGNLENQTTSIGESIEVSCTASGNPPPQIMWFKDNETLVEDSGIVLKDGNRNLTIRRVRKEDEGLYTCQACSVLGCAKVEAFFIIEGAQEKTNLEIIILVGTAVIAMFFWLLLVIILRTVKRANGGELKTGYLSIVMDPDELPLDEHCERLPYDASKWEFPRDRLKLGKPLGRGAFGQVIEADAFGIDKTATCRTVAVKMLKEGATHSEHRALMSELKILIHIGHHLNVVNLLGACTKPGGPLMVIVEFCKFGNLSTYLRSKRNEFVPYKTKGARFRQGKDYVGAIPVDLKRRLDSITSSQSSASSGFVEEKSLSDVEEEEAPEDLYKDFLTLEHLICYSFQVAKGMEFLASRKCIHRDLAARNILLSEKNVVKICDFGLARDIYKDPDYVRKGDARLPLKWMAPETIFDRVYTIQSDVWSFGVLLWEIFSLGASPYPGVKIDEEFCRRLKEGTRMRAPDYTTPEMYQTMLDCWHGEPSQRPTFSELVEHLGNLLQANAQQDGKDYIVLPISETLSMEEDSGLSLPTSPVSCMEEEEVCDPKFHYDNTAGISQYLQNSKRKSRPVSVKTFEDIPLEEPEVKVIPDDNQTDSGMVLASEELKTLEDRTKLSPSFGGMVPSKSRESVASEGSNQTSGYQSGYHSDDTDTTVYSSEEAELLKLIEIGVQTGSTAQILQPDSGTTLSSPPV", "details": "500 nM, relative to DMSO", "from_the_text": "as §1"}, "[10]": {"biological_target": "T10, LCK (Homo sapiens, UniProt P06239)", "T10 construct": "purchased Reaction Biology Corporation (assay service)", "T10 sequence (P06239 whole entry)": "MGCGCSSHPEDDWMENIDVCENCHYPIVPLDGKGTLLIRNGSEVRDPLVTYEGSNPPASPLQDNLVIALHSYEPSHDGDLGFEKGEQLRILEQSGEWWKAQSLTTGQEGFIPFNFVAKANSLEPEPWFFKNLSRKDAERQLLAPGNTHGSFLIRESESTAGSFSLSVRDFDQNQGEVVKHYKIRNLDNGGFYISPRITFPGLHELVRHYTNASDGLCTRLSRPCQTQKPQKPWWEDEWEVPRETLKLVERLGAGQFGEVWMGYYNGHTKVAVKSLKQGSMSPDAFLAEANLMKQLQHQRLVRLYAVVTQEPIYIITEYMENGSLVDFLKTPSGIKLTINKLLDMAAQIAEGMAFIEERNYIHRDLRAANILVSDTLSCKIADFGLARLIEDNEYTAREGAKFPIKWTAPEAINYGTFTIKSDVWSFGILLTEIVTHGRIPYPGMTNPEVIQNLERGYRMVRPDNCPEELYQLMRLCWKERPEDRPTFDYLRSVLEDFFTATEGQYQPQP", "from_the_text": "as §1"}, "[11]": {"biological_target": "T11, MARK1 (Homo sapiens, UniProt Q9P0L2)", "T11 construct": "purchased Reaction Biology Corporation", "details": "500 nM; relative to DMSO; read-out: Residual enzymatic activity", "from_the_text": "as §1"}, "[12]": {"biological_target": "T12, MARK2/PAR-1Ba (Homo sapiens, UniProt Q7KZI7)", "T12 construct": "purchased Reaction Biology Corporation", "details": "500 nM; relative to DMSO; read-out: Residual enzymatic activity", "from_the_text": "as §1"}, "[13]": {"biological_target": "T13, MLK3/MAP3K11 (Homo sapiens, UniProt Q16584)", "T13 construct": "purchased Reaction Biology Corporation (Malvern, PA, USA)", "T13 sequence (Q16584 whole entry)": "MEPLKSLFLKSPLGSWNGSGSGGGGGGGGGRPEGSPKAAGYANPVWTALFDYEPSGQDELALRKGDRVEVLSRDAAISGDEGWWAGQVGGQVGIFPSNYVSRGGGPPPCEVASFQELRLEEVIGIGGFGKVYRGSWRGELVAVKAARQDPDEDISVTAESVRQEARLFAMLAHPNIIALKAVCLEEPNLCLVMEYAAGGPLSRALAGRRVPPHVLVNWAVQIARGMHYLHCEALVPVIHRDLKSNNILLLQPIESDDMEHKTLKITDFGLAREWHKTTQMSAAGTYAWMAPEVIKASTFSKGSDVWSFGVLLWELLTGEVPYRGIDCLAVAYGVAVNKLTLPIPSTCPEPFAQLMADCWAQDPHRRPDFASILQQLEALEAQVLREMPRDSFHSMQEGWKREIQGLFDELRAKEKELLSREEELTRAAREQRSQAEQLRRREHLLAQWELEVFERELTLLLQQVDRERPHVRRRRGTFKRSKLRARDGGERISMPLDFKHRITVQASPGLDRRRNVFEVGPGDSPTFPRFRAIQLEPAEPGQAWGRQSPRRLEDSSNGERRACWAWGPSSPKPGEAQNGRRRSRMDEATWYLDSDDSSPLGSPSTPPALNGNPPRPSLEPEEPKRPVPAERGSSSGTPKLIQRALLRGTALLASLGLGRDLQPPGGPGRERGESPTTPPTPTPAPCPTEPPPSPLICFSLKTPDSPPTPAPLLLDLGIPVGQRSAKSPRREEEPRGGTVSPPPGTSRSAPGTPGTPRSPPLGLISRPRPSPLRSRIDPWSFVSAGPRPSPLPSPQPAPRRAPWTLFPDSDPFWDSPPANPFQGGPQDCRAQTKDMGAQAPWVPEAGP", "from_the_text": "as §1"}, "[14]": {"biological_target": "T14, NEK11 (Homo sapiens, UniProt Q8NG66)", "T14 construct": "purchased Reaction Biology Corporation (Malvern, PA, USA)", "from_the_text": "as §1"}, "[15]": {"biological_target": "T15, PAK1 (Homo sapiens, UniProt Q13153)", "T15 construct": "purchased Reaction Biology Corporation", "details": "500 nM; relative to DMSO; read-out: Residual enzymatic activity", "from_the_text": "as §1"}, "[16]": {"biological_target": "T16, PAK3 (Homo sapiens, UniProt O75914)", "T16 construct": "purchased Reaction Biology Corporation", "details": "500 nM; relative to DMSO; read-out: Residual enzymatic activity", "from_the_text": "as §1"}, "[17]": {"biological_target": "T17, PKG2/PRKG2 (Homo sapiens, UniProt Q13237)", "T17 construct": "purchased Reaction Biology Corporation", "details": "500 nM; relative to DMSO; read-out: Residual enzymatic activity", "from_the_text": "as §1"}, "[18]": {"biological_target": "T18, RET (Homo sapiens, UniProt P07949)", "T18 construct": "purchased Reaction Biology Corporation (Malvern, PA, USA)", "from_the_text": "as §1"}, "[19]": {"biological_target": "T19, SIK2 (Homo sapiens, UniProt Q9H0K1)", "T19 construct": "purchased Reaction Biology Corporation (Malvern, PA, USA)", "T19 sequence (Q9H0K1 whole entry)": "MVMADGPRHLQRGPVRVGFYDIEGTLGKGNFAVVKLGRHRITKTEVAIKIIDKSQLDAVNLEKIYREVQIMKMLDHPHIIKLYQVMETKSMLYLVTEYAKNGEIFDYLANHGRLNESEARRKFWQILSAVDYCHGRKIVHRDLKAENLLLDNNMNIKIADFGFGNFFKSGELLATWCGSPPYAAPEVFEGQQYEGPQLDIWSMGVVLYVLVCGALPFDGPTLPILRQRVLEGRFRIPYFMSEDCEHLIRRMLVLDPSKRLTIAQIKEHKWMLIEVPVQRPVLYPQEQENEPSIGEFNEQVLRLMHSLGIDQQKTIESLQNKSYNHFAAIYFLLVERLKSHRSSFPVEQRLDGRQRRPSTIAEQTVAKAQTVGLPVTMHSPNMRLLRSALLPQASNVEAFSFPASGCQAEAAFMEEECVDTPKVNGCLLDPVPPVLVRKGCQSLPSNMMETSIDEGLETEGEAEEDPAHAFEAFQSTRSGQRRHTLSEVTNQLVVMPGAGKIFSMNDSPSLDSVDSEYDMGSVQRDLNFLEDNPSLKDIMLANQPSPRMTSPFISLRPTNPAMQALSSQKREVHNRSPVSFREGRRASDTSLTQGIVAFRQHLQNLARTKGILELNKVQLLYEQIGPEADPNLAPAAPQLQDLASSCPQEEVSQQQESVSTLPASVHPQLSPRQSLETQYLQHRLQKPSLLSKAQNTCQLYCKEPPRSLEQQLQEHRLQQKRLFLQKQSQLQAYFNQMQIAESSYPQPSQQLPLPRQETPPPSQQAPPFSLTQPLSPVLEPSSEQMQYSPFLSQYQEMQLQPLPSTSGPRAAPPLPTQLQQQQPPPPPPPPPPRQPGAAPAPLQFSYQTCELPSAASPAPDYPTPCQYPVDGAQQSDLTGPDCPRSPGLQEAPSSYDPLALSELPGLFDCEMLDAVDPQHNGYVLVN", "from_the_text": "as §1"}, "[20]": {"biological_target": "T20, TLK2 (Homo sapiens, UniProt Q86UE8)", "T20 construct": "purchased Reaction Biology Corporation", "details": "500 nM; relative to DMSO; read-out: Residual enzymatic activity", "from_the_text": "as §1"}, "[21]": {"biological_target": "T21, TRKC (Homo sapiens, UniProt Q16288)", "T21 construct": "purchased Reaction Biology Corporation", "details": "500 nM; relative to DMSO; read-out: Residual enzymatic activity", "from_the_text": "as §1"}, "[22]": {"biological_target": "T22, TSSK3/STK22C (Homo sapiens, UniProt Q96PN8)", "T22 construct": "purchased Reaction Biology Corporation", "details": "500 nM; relative to DMSO; read-out: Residual enzymatic activity", "from_the_text": "as §1"}, "[23]": {"details": "500 nM, relative to DMSO, read-out: Residual enzymatic activity"}, "[24]": {"details": "10-dose mode, threefold serial dilution from 10 μM"}, "[25]": {"details": "read-out: Residual enzymatic activity"}}, "note": "Values joined by “and” are separate entries in the source; they are usually repeats but may differ in a detail not shown here. Equal entries are not always repeated.", "data": [{"smiles": "COc1cc(Nc2ncnc(Nc3cc4c(cn3)NC(=O)C(C)(C)O4)n2)cc(OC)c1OC", "note": "[MT-SYK-03]", "values": [{"measurement": "remaining activity at 0.5 µM", "setting": "[1]; [23]", "value": 49.7, "unit": "%"}, {"measurement": "IC50", "setting": "[1]; [24]", "value": 376, "unit": "nM"}, {"measurement": "remaining activity at 0.5 µM", "setting": "[2]", "value": 108, "unit": "%"}, {"measurement": "remaining activity at 0.5 µM", "setting": "[3]", "value": 99.2, "unit": "%"}, {"measurement": "Residual enzymatic activity", "setting": "[4]", "value": 59.6, "unit": "%"}, {"measurement": "remaining activity at 0.5 µM", "setting": "[4]; [25]", "value": "> 54", "unit": "%"}, {"measurement": "remaining activity at 0.5 µM", "setting": "[5]", "value": 92.2, "unit": "%"}, {"measurement": "Residual enzymatic activity", "setting": "[6]", "value": 65.1, "unit": "%"}, {"measurement": "remaining activity at 0.5 µM", "setting": "[6]; [25]", "value": "> 54", "unit": "%"}, {"measurement": "remaining activity at 0.5 µM", "setting": "[7]; [23]", "value": 25.2, "unit": "%"}, {"measurement": "IC50", "setting": "[7]; [24]", "value": 20, "unit": "nM"}, {"measurement": "remaining activity at 0.5 µM", "setting": "[8]", "value": 94.3, "unit": "%"}, {"measurement": "Residual enzymatic activity", "setting": "[9]", "value": "did not inhibit"}, {"measurement": "remaining activity at 0.5 µM", "setting": "[9]; [25]", "value": 88.6, "unit": "%"}, {"measurement": "remaining activity at 0.5 µM", "setting": "[10]; [23]", "value": 12, "unit": "%"}, {"measurement": "IC50", "setting": "[10]; [24]", "value": "20 nM and 20.1 nM"}, {"measurement": "remaining activity at 0.5 µM", "setting": "[11]", "value": 95.7, "unit": "%"}, {"measurement": "remaining activity at 0.5 µM", "setting": "[12]", "value": 97.9, "unit": "%"}, {"measurement": "remaining activity at 0.5 µM", "setting": "[13]; [23]", "value": 31.4, "unit": "%"}, {"measurement": "IC50", "setting": "[13]; [24]", "value": 25.6, "unit": "nM"}, {"measurement": "remaining activity at 0.5 µM", "setting": "[14]; [23]", "value": 35.9, "unit": "%"}, {"measurement": "IC50", "setting": "[14]; [24]", "value": 26.1, "unit": "nM"}, {"measurement": "remaining activity at 0.5 µM", "setting": "[15]", "value": 100, "unit": "%"}, {"measurement": "remaining activity at 0.5 µM", "setting": "[16]", "value": 87, "unit": "%"}, {"measurement": "remaining activity at 0.5 µM", "setting": "[17]", "value": 94.2, "unit": "%"}, {"measurement": "remaining activity at 0.5 µM", "setting": "[18]; [23]", "value": 23, "unit": "%"}, {"measurement": "IC50", "setting": "[18]; [24]", "value": 13.5, "unit": "nM"}, {"measurement": "remaining activity at 0.5 µM", "setting": "[19]; [23]", "value": 16.2, "unit": "%"}, {"measurement": "IC50", "setting": "[19]; [24]", "value": "23 nM and 23.4 nM"}, {"measurement": "remaining activity at 0.5 µM", "setting": "[20]", "value": 95.6, "unit": "%"}, {"measurement": "remaining activity at 0.5 µM", "setting": "[21]", "value": 84.5, "unit": "%"}, {"measurement": "remaining activity at 0.5 µM", "setting": "[22]", "value": 99.9, "unit": "%"}]}]}
